≈ marks a conversion by molar mass, not a printed value. Read-outs that look alike come from different tables or passages of the source. Marks after values point to notes of the source that are not given here. Each block holds one molecule with its values, some of them ahead of it.
Legend:
[1] = tested on: Enterobacteriaceae; assay: Broth microdilution MIC (Example 11); format: cell-based, E. coli, K. pneumoniae, Enterobacter cloacae
[2] = tested on: Escherichia coli; assay: Broth microdilution MIC (Example 12); format: cell-based
[3] = tested on: Klebsiella pneumoniae; assay: Broth microdilution MIC (Example 12); format: cell-based
[4] = tested on: Pseudomonas aeruginosa; assay: Broth microdilution MIC (Example 12); format: cell-based
[5] = tested on: Acinetobacter baumannii; assay: Broth microdilution MIC (Example 12); format: cell-based
[6] = tested on: vancomycin-intermediate Staphylococcus aureus (VISA); assay: Broth microdilution MIC (Example 12); format: cell-based
[7] = tested on: Enterobacteriaceae; conditions: E. coli (MMX 102), QC; cited from earlier work
[8] = tested on: P. aeruginosa and A. baumannii; conditions: P. aeruginosa (MMX 103), QC; cited from earlier work
[9] = tested on: Escherichia coli; conditions: E. coli ATCC 25922; CLSI established QC range; cited from earlier work
[10] = tested on: Pseudomonas aeruginosa; conditions: P. aeruginosa ATCC 27853; CLSI established QC range; cited from earlier work
[11] = tested on: S. aureus ATCC 29213; conditions: CLSI established QC range; cited from earlier work
[12] = tested on: S. aureus ATCC 29213; assay: Broth microdilution MIC (Example 12), ATCC QC organism; conditions: ATCC QC organism (Table 102)
[13] = tested on: Candida krusei; assay: Antifungal broth microdilution (Example 13); format: cell-based; conditions: C. krusei ATCC 6258, comparators, single value
[14] = tested on: Aspergillus spp.; assay: Antifungal broth microdilution (Example 13); format: cell-based, A. niger, A. terreus, A. fumigatus, A. flavus
[15] = tested on: fungal pathogens; assay: Antifungal activity, NIH/NIAID sponsored study; format: cell-based; conditions: 100% endpoint
[16] = tested on: C. parapsilosis ATCC 22019; assay: Antifungal broth microdilution (Example 13), QC organism; format: cell-based, Candida parapsilosis; conditions: comparators, single value
[17] = tested on: Candida krusei; conditions: C. krusei ATCC 6258, CLSI established QC range, cited from earlier work
[18] = tested on: Aspergillus spp.; conditions: cited from earlier work
[19] = tested on: C. parapsilosis ATCC 22019; conditions: C. parapsilosis ATCC 22019, CLSI established QC range, cited from earlier work
[20] = tested on: E. coli ATCC 25922; assay: MIC control strain; conditions: QC organism, Example 13
[21] = tested on: S. aureus ATCC 29213; assay: MIC control strain; conditions: QC organism, Example 13

- MIC ([1]; E. cloacae (MMX 5981), NDM-1, LVX-R, MEM-R, CAZ-R, GEN-R): 64 µg/mL (≈ 177 µM)
- MIC ([1]; E. coli (MMX 102), QC): 0.015 µg/mL (≈ 0.0415 µM)
- MIC ([1]; E. coli (MMX 5980), NDM-1, LVX-R, MEM-R, CAZ-R, GEN-R): 16 µg/mL (≈ 44.3 µM)
- MIC ([1]; E. coli (MMX 8423), ESBL, LVX-R, CAZ-R, GEN-R): 16 µg/mL (≈ 44.3 µM)
- MIC ([1]; E. coli (MMX 8424), ESBL, CAZ-R): 0.06 µg/mL (≈ 0.166 µM)
- MIC ([1]; E. coli (MMX 8425), ESBL, LVX-R, CAZ-R, GEN-R): 16 µg/mL (≈ 44.3 µM)
- MIC ([1]; K. pneumoniae (MMX 4622), KPC-2, MEM-R, CAZ-R): 1 µg/mL (≈ 2.77 µM)
- MIC ([1]; K. pneumoniae (MMX 4623), KPC-2, MEM-R, CAZ-R, GEN-R): 1 µg/mL (≈ 2.77 µM)
- MIC ([1]; K. pneumoniae (MMX 4653), KPC-3, LVX-R, MEM-R, CAZ-R): 64 µg/mL (≈ 177 µM)
- MIC ([1]; K. pneumoniae (MMX 4683), KPC-2, LVX-R, MEM-R, CAZ-R): >64 µg/mL
- MIC ([1]; K. pneumoniae (MMX 4684), ESBL, MEM-R): 0.03 µg/mL (≈ 0.083 µM)
- MIC ([1]; K. pneumoniae (MMX 4685), ESBL, LVX-R, MEM-R, CAZ-R): 32 µg/mL (≈ 88.6 µM)
- MIC ([1]; K. pneumoniae (MMX 4694), KPC-3, LVX-R, MEM-R, CAZ-R): 64 µg/mL (≈ 177 µM)
- MIC ([1]; K. pneumoniae (MMX 5979), NDM-1, LVX-R, MEM-R, CAZ-R, GEN-R): >64 µg/mL
- MIC ([2]; E. coli ATCC 25922, ATCC QC organism (Table 102)): ≤0.008 µg/mL
- MIC ([2]; E. coli ATCC 35218, ATCC QC organism (Table 102)): ≤0.008 µg/mL
- MIC ([2]; E. coli ATCC 35218, ESBL): ≤0.008 µg/mL
- MIC ([2]; E. coli ATCC BAA-2471, NDM): >8 µg/mL
- MIC ([2]; E. coli CDC 114, ESBL/KPC): 4 µg/mL (≈ 11.1 µM)
- MIC ([2]; E. coli CDC 118, ESBL/NDM): 8 µg/mL (≈ 22.1 µM)
- MIC ([2]; E. coli CDC 435, NDM): >8 µg/mL
- MIC ([2]; E. coli CDC 451, KPC): >8 µg/mL
- MIC ([2]; E. coli CDC 503, ESBL/NDM): >8 µg/mL
- MIC ([2]; E. coli MMX 5745, KPC): 8 µg/mL (≈ 22.1 µM)
- MIC ([2]; E. coli MMX 5755, ESBL): 8 µg/mL (≈ 22.1 µM)
- MIC ([2]; E. coli MMX 5756, ESBL): 4 µg/mL (≈ 11.1 µM)
- MIC ([2]; E. coli MMX 5758, ESBL): 8 µg/mL (≈ 22.1 µM)
- MIC ([3]; K. pneumoniae ATCC BAA-1705, ATCC QC organism (Table 102)): >8 µg/mL
- MIC ([3]; K. pneumoniae ATCC BAA-1705, ESBL/KPC): >8 µg/mL
- MIC ([3]; K. pneumoniae CDC 112, KPC): 4 µg/mL (≈ 11.1 µM)
- MIC ([3]; K. pneumoniae CDC 113, ESBL/KPC): 4 µg/mL (≈ 11.1 µM)
- MIC ([3]; K. pneumoniae CDC 115, ESBL/KPC): >8 µg/mL
- MIC ([3]; K. pneumoniae CDC 120, ESBL/KPC): >8 µg/mL
- MIC ([3]; K. pneumoniae CDC 126, ESBL/KPC): 0.015 µg/mL (≈ 0.0415 µM)
- MIC ([3]; K. pneumoniae CDC 129, ESBL/KPC): >8 µg/mL
- MIC ([3]; K. pneumoniae CDC 135, ESBL/VIM): >8 µg/mL
- MIC ([3]; K. pneumoniae CDC 138, ESBL/NDM): >8 µg/mL
- MIC ([3]; K. pneumoniae CDC 158, ESBL/NDM/OXA): 4 µg/mL (≈ 11.1 µM)
- MIC ([3]; K. pneumoniae MMX 9029, ESBL): 0.12 µg/mL (≈ 0.332 µM)
- MIC ([4]; P. aeruginosa ATCC 27853, ATCC QC organism (Table 102)): 0.5 µg/mL (≈ 1.38 µM)
- MIC ([4]; P. aeruginosa CDC 230, VIM/OXA): 8 µg/mL (≈ 22.1 µM)
- MIC ([4]; P. aeruginosa CDC 231, KPC/OXA): >8 µg/mL
- MIC ([4]; P. aeruginosa CDC 241, IMP/OXA): 8 µg/mL (≈ 22.1 µM)
- MIC ([4]; P. aeruginosa CDC 246, NDM/OXA): >8 µg/mL
- MIC ([4]; P. aeruginosa CDC 250, NDM/OXA): >8 µg/mL
- MIC ([4]; P. aeruginosa CDC 356, KPC): 0.12 µg/mL (≈ 0.332 µM)
- MIC ([4]; P. aeruginosa CDC 439, IMP): 8 µg/mL (≈ 22.1 µM)
- MIC ([4]; P. aeruginosa CDC 444, VIM): 8 µg/mL (≈ 22.1 µM)
- MIC ([4]; P. aeruginosa CDC 457, VIM): >8 µg/mL
- MIC ([4]; P. aeruginosa CDC 516, KPC/AmpC): 0.25 µg/mL (≈ 0.692 µM)
- MIC ([4]; P. aeruginosa CDC 518, KPC/AmpC): >8 µg/mL
- MIC ([5]; A. baumannii CDC 273, ESBL/OXA): >8 µg/mL
- MIC ([5]; A. baumannii CDC 274, ESBL/OXA): 8 µg/mL (≈ 22.1 µM)
- MIC ([5]; A. baumannii CDC 275, ESBL/OXA): 4 µg/mL (≈ 11.1 µM)
- MIC ([5]; A. baumannii CDC 277, ESBL/OXA): 8 µg/mL (≈ 22.1 µM)
- MIC ([5]; A. baumannii CDC 284, ESBL/OXA): 8 µg/mL (≈ 22.1 µM)
- MIC ([5]; A. baumannii CDC 307, OXA): 8 µg/mL (≈ 22.1 µM)
- MIC ([5]; A. baumannii CDC 308, ESBL/OXA): 4 µg/mL (≈ 11.1 µM)
- MIC ([5]; A. baumannii CDC 311, OXA): 2 µg/mL (≈ 5.53 µM)
- MIC ([5]; A. baumannii CDC 312, OXA): 2 µg/mL (≈ 5.53 µM)
- MIC ([5]; A. baumannii CDC 313, ESBL/OXA): 2 µg/mL (≈ 5.53 µM)
- MIC ([5]; A. baumannii NCTC 13304, OXA): 1 µg/mL (≈ 2.77 µM)
- MIC ([6]; S. aureus NRS 1 (hVISA)): 4 µg/mL (≈ 11.1 µM)
- MIC ([6]; S. aureus NRS 2): 4 µg/mL (≈ 11.1 µM)
- MIC ([6]; S. aureus NRS 3): >8 µg/mL
- MIC ([6]; S. aureus NRS 4): 4 µg/mL (≈ 11.1 µM)
- MIC ([6]; S. aureus NRS 13): 0.12 µg/mL (≈ 0.332 µM)
- MIC ([6]; S. aureus NRS 18): 4 µg/mL (≈ 11.1 µM)
- MIC ([6]; S. aureus NRS 22): 8 µg/mL (≈ 22.1 µM)
- MIC ([6]; S. aureus NRS 24 (hVISA)): >8 µg/mL
- MIC ([6]; S. aureus NRS 27): 8 µg/mL (≈ 22.1 µM)
- MIC [12]: 0.06 µg/mL (≈ 0.166 µM)
SMILES: C[C@H]1COc2c(N3CCN(C)CC3)c(F)cc3c(=O)c(C(=O)O)cn1c23 [LVX]
- CLSI Quality Control Range (MIC) [7]: (0.008-0.06)^a μg/mL
- CLSI Quality Control Range (MIC) [8]: (0.5-4)^a
- QC range of MIC [9]: (0.008-0.06) μg/mL
- QC range of MIC [10]: (0.5-4) μg/mL
- QC range of MIC [11]: (0.06-0.5) μg/mL

SMILES: C[C@@H](c1ncncc1F)[C@](O)(Cn1cncn1)c1ccc(F)cc1F [Voriconazole]
- MIC 24 hr ([13]; 24 hr): 0.12 µg/mL (≈ 0.344 µM)
- MIC 48 hr ([13]; 48 hr): 0.5 µg/mL (≈ 1.43 µM)
- MIC 24 hr ([14]; A. flavus ATCC 204304): 0.12 µg/mL (≈ 0.344 µM)
- MIC 48 hr ([14]; A. flavus ATCC 204304): 2 µg/mL (≈ 5.73 µM)
- MIC 24 hr ([14]; A. fumigatus ATCC MYA-3626): 0.25 µg/mL (≈ 0.716 µM)
- MIC 48 hr ([14]; A. fumigatus ATCC MYA-3626): 0.5 µg/mL (≈ 1.43 µM)
- MIC ([15]; Aspergillus fumigatus, read-out: Antifungal activity, MIC 100%, A. fumigatus AF1): 0.5 µg/mL (≈ 1.43 µM)
- MIC ([15]; Aspergillus fumigatus, read-out: Antifungal activity, MIC 100%, A. fumigatus AF2): 4 µg/mL (≈ 11.5 µM)
- MIC ([15]; Aspergillus fumigatus, read-out: Antifungal activity, MIC 100%, A. fumigatus AF3): 8 µg/mL (≈ 22.9 µM)
- MIC ([15]; Blastomyces dermatitidis, read-out: Antifungal activity, MIC 100%, B. dermatitidis BD1): 0.125 µg/mL (≈ 0.358 µM)
- MIC ([15]; Blastomyces dermatitidis, read-out: Antifungal activity, MIC 100%, B. dermatitidis BD2): ≤ 0.03 µg/mL
- MIC ([15]; Blastomyces dermatitidis, read-out: Antifungal activity, MIC 100%, B. dermatitidis BD3): 0.06 µg/mL (≈ 0.172 µM)
- MIC ([15]; Paecilomyces variotii, read-out: Antifungal activity, MIC 100%, P. variotii CLSI QC): 0.125 µg/mL (≈ 0.358 µM)
- MIC 24 hr ([16]; 24 hr): 0.12 µg/mL (≈ 0.344 µM)
- MIC 48 hr ([16]; 48 hr): 0.12 µg/mL (≈ 0.344 µM)
- QC Range 24 hr ([17]; 24 hr): 0.06-0.5
- QC Range 48 hr ([17]; 48 hr): 0.12-1
- QC Range 48 hr ([18]; A. flavus ATCC 204304, CLSI established QC range): 0.5-4
- QC Range 48 hr ([18]; A. fumigatus ATCC MYA-3626, CLSI established QC range): 0.25-1
- QC Range 24 hr ([19]; 24 hr): 0.015-0.12
- QC Range 48 hr ([19]; 48 hr): 0.03-0.25
- MIC 24 hr [20]: >64
- MIC 24 hr [21]: >64

— patent US20230124862A1, “BISMUTH THIOL COMPOUNDS AND COMPOSITIONS AND METHODS OF TREATING MICROBIAL CO-INFECTIONS” (Microbion Corporation, priority 2020, published 2023)
